Where only a bound is given, the exact number is not on record here.

For the first test, the system named is NCI-H358 (KRAS^G12C mutation) cell. Description: Cell assay of antiproliferative activity against NCI-H358 cell (Celltiter-Glo, 5 days). The test is classed as cell-based. As to conditions: 5 days incubation. As to the method: Cell Assay of Antiproliferative Activity of Compounds Against NCI-H358 (KRAS^G12C Mutation) Cell.
40 μL phosphate buffer was added to the outer wells of the 384 microplate, and 40 μL cell suspension to be tested was added to the other wells. Then the microplate was incubated in a carbon dioxide incubator overnight.
The compounds to be tested were gradiently diluted, each compound was performed 10 concentration gradients (diluted from 50 μM to 0.003 μM) and added 100 nL to the corresponding wells in the microplate. After addition, 40 μl of phosphate buffer was added to each well in rows A and P and columns 1 and 24, and then the microplate was incubated in a carbon dioxide incubator for 5 days.
20 μL of Promega Celltiter-Glo reagent was added to each well of the microplate, and then the luminescence signal was stabilized by oscillating at room temperature for 10 min. Then PekinElmer Envision multi-label analyzer was used to read.
Finally, GraphPad Prism software was used to calculate the IC50 value of the compound and the fitting curve was drawn.
Anti-proliferative activity of the compounds of the present invention against NCI-H358 (KRAS^G12C mutation) cell was shown in Table 1.
(In general: In ATP-based viability assays light output follows the ATP content of the culture.)
Consider `C=CC(=O)N1CCN(c2nc(=O)n(-c3c(C(C)C)ccnc3S(C)(=O)=O)c3nc(-c4ccccc4Cl)c(F)cc23)[C@@H](C)C1` (single isomer, unassigned) [Example 20A], for which half-maximal inhibition (IC50) was put at 1500 nM.
Compound `C=CC(=O)N1CCN(c2nc(=O)n(-c3c(CC)cccc3S(=O)(=O)C(C)C)c3nc(-c4c(O)cccc4F)c(F)cc23)[C@@H](C)C1` (single isomer, unassigned) [Example 83B] displayed an IC50 of 26 nM.
`C=CC(=O)N1CCN(c2nc(=O)n(-c3c(C4CCC4)cccc3S(C)(=O)=O)c3nc(-c4c(O)cccc4F)c(F)cc23)[C@@H](C)C1` [Example 25, 4-((S)-4-acryloyl-2-methylpiperazin-1-yl)-1-(2-cyclobutyl-6-(methylsulfonyl)phenyl)-6-fluoro-7-(2-fluoro-6-hydroxyphenyl) pyridino[2,3-d]pyrimidin-2(1H)-one] returned an IC50 of 9 nM.
Still for that read-out and setting: with `C=CC(=O)N1CCN(c2nc(=O)n(-c3c(S(C)(=O)=O)ccnc3C(C)C)c3nc(-c4c(O)cccc4F)c(F)cc23)[C@@H](C)C1` [Example 18, 4-((S)-4-acryloyl-2-methylpiperazin-1-yl)-6-fluoro-7-(2-fluoro-6-hydroxyphenyl)-1-(2-isopropyl-4-(methylsulfonyl)pyridin-3-yl)pyridino[2,3-d]pyrimidin-2 (1H)-one] the figure was 30 nM; with `C=CC(=O)N1CCN(c2nc(=O)n(-c3cccnc3S(C)(=O)=O)c3nc(-c4c(O)cccc4F)c(F)cc23)CC1CC#N` (centres unmarked) [Example 92, 2-(1-acryloyl-4-(6-fluoro-7-(2-fluoro-6-hydroxyphenyl)-1-(2-(methylsulfonyl)pyridin-3-yl)-2-oxo-1,2-dihydropyridino [2,3-d]pyrimidin-4-yl)piperazin-2-yl) acetonitrile], greater than 10000 nM.
`C=CC(=O)N1CCN(c2nc(=O)n(-c3c(C4CC4)cccc3S(C)(=O)=O)c3nc(-c4c(O)cccc4F)c(F)cc23)[C@@H](C)C1` (single isomer, unassigned) [Example 6A] showed an IC50 of 200 nM.
The compound `C=CC(=O)N1CCN(c2nc(=O)n(-c3c(C)cccc3S(C)(=O)=O)c3nc(-c4c(O)cccc4F)c(F)cc23)CC1CC#N` (centres unmarked) [Example 91, 2-(1-acryloyl-4-(6-fluoro-7-(2-fluoro-6-hydroxyphenyl)-1-(2-methyl-6-(methylsulfonyl)phenyl)-2-oxo-1,2-dihydropyridino [2,3-d]pyrimidin-4-yl)piperazin-2-yl) acetonitrile] registered an IC50 of 1000 to 10000 nM.
Still for that read-out and setting: the result for `C=CC(=O)N1CCN(c2nc(=O)n(-c3c(C(C)C)cccc3S(C)(=O)=O)c3nc(-c4c(F)cccc4OC(C)=O)c(F)cc23)[C@@H](C)C1` [Example 31, 2-(4-((S))-4-acryloyl-2-methylpiperazin-1-yl)-6-fluoro-1-(2-isopropyl-6-(methylsulfonyl)phenyl)-2-oxo-1,2-dihydropyridino[2,3-d]pyrimidin-7-yl)-3-fluorophenyl acetate] reads 8 nM; that for `C=CC(=O)N1CCN(c2nc(=O)n(-c3c(C(C)C)ccnc3S(C)(=O)=O)c3nc(-c4ccccc4Cl)c(F)cc23)[C@@H](C)C1` (single isomer, unassigned) [Example 20B], 13 nM.

Staying with this test, now noted: Homo sapiens, NCI-H358, 120 h, 5 days incubation.
In turn, `C=CC(=O)N1CCN(c2nc(=O)n(-c3c(C4CC4)cccc3S(C)(=O)=O)c3nc(-c4ccccc4Cl)c(F)cc23)[C@@H](C)C1` [Example 17, (S)-4-(4-acryloyl-2-methylpiperazin-1-yl)-7-(2-chlorophenyl)-1-(2-cyclopropyl-6-(methylsulfonyl)phenyl)-6-fluoropyridino [2,3-d] pyrimidin-2(1H)-one] came in with an IC50 of 31 nM.
As to `C=CC(=O)N1CCN(c2nc(=O)n(-c3c(C)cccc3N(C)S(C)(=O)=O)c3nc(-c4c(O)cccc4F)c(F)cc23)[C@@H](C)C1` [Example 11], inhibition was half-maximal at 180 nM (IC50).
`C=CC(=O)N1CCN(c2nc(=O)n(-c3c(C(C)C)ccnc3S(C)(=O)=O)c3nc(-c4ccccc4Cl)c(F)cc23)[C@@H](C)C1` [Example 20, (S)-4-(4-acryloyl-2-methylpiperazin-1-yl)-7-(2-chlorophenyl)-6-fluoro-1-(4-isopropyl-2-(methylsulfonyl)pyridin-3-yl) pyridino[2,3-d] pyrimidin-2(1H)-one] showed an IC50 of 23 nM.
Consider `C=CC(=O)N1CCN(c2nc(=O)n(-c3c(C4CC4)cccc3S(C)(=O)=O)c3nc(-c4c(F)cccc4F)c(F)cc23)[C@@H](C)C1` [Example 15, (S)-4-(4-acryloyl-2-methylpiperazin-1-yl)-1-(2-cyclopropyl-6-(methylsulfonyl)phenyl)-7-(2,6-difluorophenyl)-6-fluoropyridino [2,3-d] pyrimidin-2(1H)-one], for which the IC50 was 58 nM.
For the compound `C=C(F)C(=O)N1CCN(c2nc(=O)n(-c3c(C(C)C)cccc3S(C)(=O)=O)c3nc(-c4ccccc4Cl)c(F)cc23)[C@@H](C)C1` [Example 23, (S)-7-(2-chlorophenyl)-6-fluoro-4-(4-(2-fluoroacryloyl)-2-methylpiperazin-1-yl)-1-(2-isopropyl-6-(methylsulfonyl)phenyl)pyridino[2,3-d]pyrimidin-2(1H)-one], the IC50 stood at 1100 nM.
`C=CC(=O)N1CCN(c2nc(=O)n(-c3c(C)cccc3S(=O)(=O)C3CC3)c3nc(-c4c(O)cccc4F)c(F)cc23)[C@@H](C)C1` [Example 7, 4-((S)-4-acryloyl-2-methylpiperazin-1-yl)-1-(2-(cyclopropylsulfonyl)-6-methylphenyl)-6-fluoro-7-(2-fluoro-6-hydroxyphenyl) pyridino [2,3-d] pyrimidin-2(1H)-one] came in with a half-maximal inhibitory concentration (IC50) of 240 nM.
The same measure, in the same setting: with `C=CC(=O)N1CCN(c2nc(=O)n(-c3c(C(C)C)cccc3S(C)(=O)=O)c3nc(-c4ccc[nH]c4=O)c(F)cc23)[C@@H](C)C1` [Example 71, (S)-4-(4-acryloyl-2-methylpiperazin-1-yl)-6-fluoro-1-(2-isopropyl-6-(methylsulfonyl)phenyl)-7-(2-oxo-1,2-dihydropyridin-3-yl) pyridino[2,3-d] pyrimidin-2 (1H)-one] the figure was greater than 10000 nM; with `C=CC(=O)N1CCN(c2nc(=O)n(-c3ccccc3S(C)(=O)=O)c3nc(-c4c(O)cccc4F)c(F)cc23)[C@@H](C)C1` [Example 85, 4-((S)-4-acryloyl-2-methylpiperazin-1-yl)-6-fluoro-7-(2-fluoro-6-hydroxyphenyl)-1-(2-(methylsulfonyl)phenyl) pyridino[2,3-d] pyrimidin-2(1H)-one], less than 1000 nM.
`C=CC(=O)N1C[C@H](C)N(c2nc(=O)n(-c3c(C4CCC4)cccc3S(C)(=O)=O)c3nc(-c4c(O)cccc4F)c(F)cc23)C[C@H]1C` [Example 63A] showed an IC50 of 370 nM.
Compound `C=CC(=O)N1CCN(c2nc(=O)n(-c3c(C(C)C)ccnc3S(C)(=O)=O)c3nc(-c4c(O)cccc4F)c(F)cc23)[C@@H](C)C1` [Example 16, 4-((S)-4-acryloyl-2-methylpiperazin-1-yl)-6-fluoro-7-(2-fluoro-6-hydroxyphenyl)-1-(4-isopropyl-2-(methylsulfonyl)pyridin-3-yl) pyridino [2,3-d] pyrimidin-2 (1H)-one] yielded an IC50 of 12 nM.
Still for that read-out and setting: with `C=CC(=O)N1CCN(c2nc(=O)n(-c3c(C4CC4)cccc3S(C)(=O)=O)c3nc(-c4ccccc4F)c(F)cc23)[C@@H](C)C1` [Example 13, (S)-4-(4-acryloyl-2-methylpiperazin-1-yl)-1-(2-cyclopropyl-6-(methylsulfonyl)phenyl)-6-fluoro-7-(2-fluorophenyl) pyridin [2,3-d] pyrimidin-2(1H)-one] the figure was 15 nM.
`C=CC(=O)N1CCN(c2nc(=O)n(-c3c(S(C)(=O)=O)ccnc3C)c3nc(-c4c(O)cccc4F)c(F)cc23)[C@@H](C)C1` [Example 2, 4-((S)-4-acryloyl-2-methylpiperazin-1-yl)-6-fluoro-7-(2-fluoro-6-hydroxyphenyl)-1-(2-methyl-4-(methylsulfonyl)pyridin-3-yl) pyridino [2,3-d] pyrimidin-2 (1H)-one] yielded an IC50 of 540 nM.
Take `C=CC(=O)N1C[C@H](C)N(c2nc(=O)n(-c3c(C(C)C)cccc3S(C)(=O)=O)c3nc(-c4c(O)cccc4F)c(F)cc23)C[C@H]1C` [Example 78A]: the IC50 turned out to be 170 nM.
As to `C=CC(=O)N1CCN(c2nc(=O)n(-c3c(C(C)C)ccnc3S(C)(=O)=O)c3nc(-c4ccc(F)cc4Cl)c(F)cc23)[C@@H](C)C1` [Example 22, (S)-4-(4-acryloyl-2-methylpiperazin-1-yl)-7-(2-chloro-4-fluorophenyl)-6-fluoro-1-(4-isopropyl-2-(methylsulfonyl)pyridin-3-yl) pyridino[2,3-d]pyrimidin-2(1H)-one], the IC50 worked out at 39 nM.
The same measure, in the same setting: with `C=CC(=O)N1CCN(c2nc(=O)n(-c3c(C(C)C)cccc3S(C)(=O)=O)c3nc(-c4ccc(C#N)cc4Cl)c(F)cc23)[C@@H](C)C1` [Example 66, (S)-4-(4-(4-acryloyl-2-methylpiperazin-1-yl)-6-fluoro-1-(2-isopropyl-6-(methylsulfonyl)phenyl)-2-oxo-1,2-dihydropyridino [2,3-d]pyrimidin-7-yl)-3-chlorobenzonitrile] the figure was greater than 10000 nM; with `C=CC(=O)N1CCN(c2nc(=O)n(-c3c(C(C)C)ccnc3S(C)(=O)=O)c3nc(-c4cccc(F)c4Cl)c(F)cc23)[C@@H](C)C1` [Example 26, (S)-4-(4-acryloyl-2-methylpiperazin-1-yl)-7-(2-chloro-3-fluorophenyl)-6-fluoro-1-(4-isopropyl-2-(methylsulfonyl)pyridin-3-yl) pyridino[2,3-d] pyrimidin-2(1H)-one], 18 nM; with `C=CC(=O)N1CCN(c2nc(=O)n(-c3c(C(C)C)cncc3S(C)(=O)=O)c3nc(-c4c(O)cccc4F)c(F)cc23)[C@@H](C)C1` [Example 29], 53 nM.

As a reminder, the IC50 is the point on the concentration scale where inhibition reaches its midpoint.

The values are drawn from US20230118795A1, “ARYL OR HETEROARYL PYRIDONE OR PYRIMIDINE DERIVATIVE, PREPARATION METHOD AND USE THEREOF” (SUZHOU ZELGEN BIOPHARMACEUTICALS CO., LTD., priority 2020, published 2023).
